Tested on: HBV
Experiment: In vitro anti-HBV activity in HepG2.2.15 cell line (intracellular HBV DNA by qPCR at 1 μM)
Type: cell-based
Details: Hepatitis B virus, 144 h; HepG2.2.15 cells, 1 μM compound, 6 days, intracellular HBV DNA as percentage compared to vehicle control (0.5% DMSO)
Protocol: The stable transfected HBV cell line, called HepG2.2.15 cells was a valuable model with high reproducibility and commonly used for drug screening. To identify the anti-HBV activity, HepG2.2.15 cells were seeded at 5×10^5 cells/well with high glucose Dulbecco's modified Eagle medium (DMEM) containing 10% heat inactivated fetal bovine serum (FBS), 300 mg/L G418, non-essential amino acids (NEAA) 100 units/ml Antibiotic-Antimycotic, and allowed to stand for an overnight in an incubator set at 37° C. and 5% C02. HepG2.2.15 cells in each well were treated with the medium containing a compound (1 μM with 0.5% dimethyl sulfoxide (DMSO final concentration) for three days in the incubator. After that the medium was removed and fresh medium containing the compound was added to the cells for another 3 days. After 6 days of treatment, intracellular HBV DNA was extracted and determined by using quantitative real-time PCR (qPCR) technique with specific primers. Intrahepatic HBV DNA viral load was reported as percentage compared to vehicle control (0.5% DMSO) as shown in Table A.
“B” means % ranging between 80 and 90; “C” means % ranging between 70 and 80; “D” means % ranging between 60 and 70; “E” means % ranging between 45 and 60, “F” means %<45.

Row | Structure (SMILES) | activity at 1 µM
1 | Cc1ncccc1-c1ccc(C(=O)N2CC[C@H](C(=O)Nc3cc(F)c(F)c(F)c3)C2)[nH]1 [Example 80, (S)-1-(5-(2-methylpyridin-3-yl)-1H-pyrrole-2-carbonyl)-N-(3,4,5-trifluorophenyl) pyrrolidine-3-carboxamide] | < 45%
2 | Cc1ncccc1-c1ccc(C(=O)N2CC[C@H](C(=O)Nc3ccc(F)c(C#N)c3)C2)[nH]1 [Example 81, (S)—N-(3-cyano-4-fluorophenyl)-1-(5-(2-methylpyridin-3-yl)-1H-pyrrole-2-carbonyl) pyrrolidine-3-carboxamide] | 45 to 60%
3 | O=C(Nc1cc(F)c(F)c(F)c1)[C@H]1CCN(C(=O)c2ccc(-c3cccnc3)[nH]2)C1 [Example 82] | 45 to 60%
4 | C[C@H]1[C@@H](C(=O)Nc2cc(F)c(F)c(F)c2)CCN1C(=O)c1ccc(-c2cnccn2)[nH]1 [Example 84, (2S,3S)-2-methyl-1-(5-(pyrazin-2-yl)-1H-pyrrole-2-carbonyl)-N-(3,4,5-trifluorophenyl) pyrrolidine-3-carboxamide] | > 90%
5 | Cc1ncc(-c2ccc(C(=O)N3CC[C@H](C(=O)Nc4cc(F)c(F)c(F)c4)C3)[nH]2)cn1 [Example 86, (S)-1-(5-(2-methylpyrimidin-5-yl)-1H-pyrrole-2-carbonyl)-N-(3,4,5-trifluorophenyl)pyrrolidine-3-carboxamide] | < 45%
6 | Cc1n[nH]c(C)c1-c1ccc(C(=O)N2CC[C@H](C(=O)Nc3cc(F)c(F)c(F)c3)C2)[nH]1 [Example 87, (S)-1-(5-(3,5-dimethyl-1H-pyrazol-4-yl)-1H-pyrrole-2-carbonyl)-N-(3,4,5-trifluorophenyl) pyrrolidine-3-carboxamide] | < 45%
7 | Cc1nn(C)c(C)c1-c1ccc(C(=O)N2CC[C@H](C(=O)Nc3cc(F)c(F)c(F)c3)C2)[nH]1 [Example 88, (S)—N-(3,4,5-trifluorophenyl)-1-(5-(1,3,5-trimethyl-1H-pyrazol-4-yl)-1H-pyrrole-2-carbonyl) pyrrolidine-3-carboxamide] | < 45%
8 | Cc1ncncc1-c1ccc(C(=O)N2CC[C@H](C(=O)Nc3cc(F)c(F)c(F)c3)C2)[nH]1 [Example 89, (S)-1-(5-(4-methylpyrimidin-5-yl)-1H-pyrrole-2-carbonyl)-N-(3,4,5-trifluorophenyl) pyrrolidine-3-carboxamide] | < 45%
9 | O=C(Nc1cc(F)c(F)c(F)c1)[C@H]1CCN(C(=O)c2ccc(-c3ccccn3)[nH]2)C1 [Example 90, (S)-1-(5-(pyridin-2-yl)-1H-pyrrole-2-carbonyl)-N-(3,4,5-trifluorophenyl)pyrrolidine-3-carboxamide] | 70 to 80%
10 | Cn1ccnc1-c1ccc(C(=O)N2CC[C@H](C(=O)Nc3cc(F)c(F)c(F)c3)C2)[nH]1 [Example 91, (S)-1-(5-(1-methyl-1H-imidazol-2-yl)-1H-pyrrole-2-carbonyl)-N-(3,4,5-trifluorophenyl)pyrrolidine-3-carboxamide] | < 45%
11 | Cc1nccnc1-c1ccc(C(=O)N2CC[C@H](C(=O)Nc3cc(F)c(F)c(F)c3)C2)[nH]1 [Example 92, (S)-1-(5-(3-methylpyrazin-2-yl)-1H-pyrrole-2-carbonyl)-N-(3,4,5-trifluorophenyl)pyrrolidine-3-carboxamide] | 45 to 60%
12 | Cc1nccnc1-c1ccc(C(=O)N2CC[C@H](C(=O)Nc3cc(F)c(F)c(F)c3)[C@@H]2C)[nH]1 [Example 93, (2S,3S)-2-methyl-1-(5-(3-methylpyrazin-2-yl)-1H-pyrrole-2-carbonyl)-N-(3,4,5-trifluorophenyl) pyrrolidine-3-carboxamide] | < 45%
13 | Cc1ncnc(C)c1-c1ccc(C(=O)N2CC[C@H](C(=O)Nc3ccc(F)c(C#N)c3)C2)[nH]1 [Example 94, (S)—N-(3-cyano-4-fluorophenyl)-1-(5-(4,6-dimethylpyrimidin-5-yl)-1H-pyrrole-2-carbonyl)pyrrolidine-3-carboxamide] | 60 to 70%

From patent US20230391752A1, “PYRROLIDINE-3-CARBOXAMIDE DERIVATIVES AND RELATED USES” (Chulalongkorn University, priority 2020, published 2023)
